The text below walks through data of patent US7919493B2, “Anititumoral ecteinascidin derivatives” (Pharma Mar, S.A., priority 2001, dated 2011).

The structures appear in SMILES notation. In brackets after ≈: the same amount, converted by molar mass.

Type in all cases: cell-based
The subject of one experiment is HT29. Nature of the experiment: Cytotoxic assay, sulforhodamine B (SRB), HT29. The following applies: Homo sapiens, HT-29; HT29 cells, 48 hours exposure, SRB method. An excerpt:
(§1) A colorimetric type of assay, using sulforhodamine B (SRB) reaction has been adapted for a quantitative measurement of cell growth and viability (following the technique described by Skehan P et al. J. Natl. Cancer Inst. 1990, 82, 1107-1112).
(§2) This form of assay employs 96-well cell culture microplates of 9 mm diameter (Faircloth et al. Methods in cell science, 1988, 11(4), 201-205; Mosmann et al, Journal of. Immunological. Methods, 1983, 65(1-2), 55-63). Most of the cell lines are obtained from American Type Culture Collection (ATCC) derived from different human cancer types. Cells are maintained in RPMI 1640 10% FBS, supplemented with 0.1 g/L penicillin and 0.1 g/l streptomycin sulfate and then incubated at 37° C., 5% CO2 and 98% humidity. For the experiments, cells were harvested from subconfluent cultures using trypsin and resuspended in fresh medium before counting and plating.
(§3) Cells were seeded in 96 well microtiter plates at 5×10^3 cells per well in aliquots of 195 μL medium, and allowed to attach to the plate surface for 18 hours in drug free medium. Afterwards, samples are in aliquots of 5 μL in a ranging from 10 to 10-8 μg/mL dissolved in DMSO/ETOH (0.2% in PS buffer). After 48 hours exposure, the antitumor effect are measured by the SRB method: cells are fixed by adding 50 μL of cold 50% (w/v) trichloroacetic acid and incubating for 60 minutes at 4° C. Plates are washed with deionised water and dried. 100 μL of SRB solution (0.4% w/v in 1% acetic acid) is added to each microtiter well and incubated for 10 minutes at room temperature. Unbound SRB is removed by washing with 1% acetic acid. Plates are air-dried and bound stain is solubilized with Tris Buffer. Optical densities are read on an automated spectrophotometric plate reader at a single wavelength of 490 nm.
(§4) The values for mean ±SD of data from triplicate wells are calculated. GI50 (concentration that produces 50% growth inhibition) parameter was calculated (NCI algorithm) by automatic interpolation.

A further experiment has as its system A549. Nature of the experiment: Cytotoxic assay, sulforhodamine B (SRB), A549. The settings on record: Homo sapiens; A549 cells, 48 hours exposure, SRB method.
Description: as §1, §2, §3, §4

A further experiment deals with MEL-28. Nature of the experiment: Cytotoxic assay, sulforhodamine B (SRB), MEL-28. The settings on record: Homo sapiens, SK-MEL-28; MEL-28 cells, 48 hours exposure, SRB method.
Description: as §1, §2, §3, §4

The next experiment relates to DU-14S. Nature of the experiment: Cytotoxic assay, sulforhodamine B (SRB), DU-14S. The settings on record: Homo sapiens; DU-14S cells, 48 hours exposure, SRB method.
Description: as §1, §2, §3, §4

Another experiment relates to DU-145. Put plainly: Cytotoxic activity screening, DU-145 cells. The following applies: Homo sapiens, DU-145, DU-145 cells.
In experiment [1] the test system is MEL-28 (monolayer culture of a human melanoma). Nature of the experiment: Cytotoxic activity screening, MEL-28 cells. The following applies: Homo sapiens, SK-MEL-28, 72 h, three days of incubation, Crystal Violet, approximate IC50. The gist of the method:
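Human monolayer lines seeded at 2×10^4 cells/well in MEM with 10% FCS containing drug, in duplicate. After 3 days at 37° C, 10% CO2, wells stained with 0.1% Crystal Violet. Approximate IC50 estimated from growth versus drug-free controls.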

Experiment [2] has as its system P-388 (suspension culture of a lymphoid neoplasm from DBA/2 mouse). Put plainly: Cytotoxic activity screening, P-388 cells. The following applies: Mus musculus, P388, 72 h, three days of incubation, approximate IC50 vs control growth. The gist of the method: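 P-388 murine lymphoid cells seeded at 1×10^4 cells/well in MEM with 5% FCS containing drug at the stated concentrations, run in duplicate. Untreated wells served as growth controls to confirm exponential growth.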

Experiment [3] has as its system A-549 (monolayer culture of a human lung carcinoma). Nature of the experiment: Cytotoxic activity screening, A-549 cells. The settings on record: Homo sapiens, A549, 72 h, three days of incubation, Crystal Violet, approximate IC50.
The subject of experiment [4] is HT-29 (monolayer culture of a human colon carcinoma). Put plainly: Cytotoxic activity screening, HT-29 cells. The following applies: Homo sapiens, HT-29, 72 h, three days of incubation, Crystal Violet, approximate IC50.

`COc1c(C)cc2c(c1O)[C@@H]1[C@@H]3[C@@H]4SC[C@H](NC(=O)[C@@H]5CCCN5C(=O)OC(C)(C)C)C(=O)OC[C@@H](c5c6c(c(C)c(OC(C)=O)c54)OCO6)N3[C@@H](C#N)[C@H](C2)N1C` [Compound 15b]: the GI50 in the experiment on HT29 is 3.66 nM; in the experiment on A549 it was 7.32 nM.

In the case of `COc1c(C)cc2c(c1O)[C@@H]1[C@@H]3[C@@H]4SC[C@H](NC(=O)c5cc6ccccc6oc5=O)C(=O)OC[C@@H](c5c6c(c(C)c(OC(C)=O)c54)OCO6)N3[C@@H](O)[C@H](C2)N1C` [Compound 16a], the GI50 came to 3.94 nM with HT29, 2.94 nM in the experiment on A549, 3.02 nM with MEL-28 and 4.73 nM in the experiment on DU-14S.

Turning to `COc1c(C)cc2c(c1O)[C@@H]1[C@@H]3[C@@H]4SC[C@H](NC(=O)c5cc6ccccc6oc5=O)C(=O)OC[C@@H](c5c6c(c(C)c(OC(C)=O)c54)OCO6)N3[C@@H](C#N)[C@H](C2)N1C` [Compound 15a], the GI50 with HT29 is 4.38 nM; in the experiment with A549, 2.83 nM; in the experiment on MEL-28, 3.23 nM; with DU-14S it was 4.38 nM.

On to `COc1c(C)cc2c(c1O)[C@@H]1[C@@H]3[C@@H]4SC[C@H](NC(=O)[C@@H]5CCCN5)C(=O)OC[C@@H](c5c6c(c(C)c(OC(C)=O)c54)OCO6)N3[C@@H](O)[C@H](C2)N1C` [Compound 16c], for which the GI50 in the experiment on HT29 was determined as 0.0422 nM; in the experiment with A549, 5.63 nM; in the experiment with MEL-28, 0.281 nM; in the experiment with DU-14S, 1.13 nM.

Take `COc1c(C)cc2c(c1O)[C@@H]1[C@@H]3[C@@H]4SC[C@H](NC(=O)c5cc(C)on5)C(=O)OC[C@@H](c5c6c(c(C)c(OC(C)=O)c54)OCO6)N3[C@@H](O)[C@H](C2)N1C` [Compound 16f]: the GI50 was 4.3 nM in the experiment with HT29, 3.47 nM in the experiment on A549, 5.13 nM in the experiment with MEL-28 and 3.4 nM in the experiment on DU-14S.

In the case of `COc1c(C)cc2c(c1O)[C@@H]1[C@@H]3[C@@H]4SC[C@H](NC(=O)c5cnn(-c6ccccc6)c5C(F)(F)F)C(=O)OC[C@@H](c5c6c(c(C)c(OC(C)=O)c54)OCO6)N3[C@@H](C#N)[C@H](C2)N1C` [Compound 15d], the results for the GI50 in the experiment on HT29 and with A549 were 10.1 nM and 14.6 nM, respectively.

For `COc1c(C)cc2c(c1O)[C@@H]1[C@@H]3[C@@H]4SC[C@H](NC(=O)[C@@H]5CCCN5C(=O)OC(C)(C)C)C(=O)OC[C@@H](c5c6c(c(C)c(OC(C)=O)c54)OCO6)N3[C@@H](O)[C@H](C2)N1C` [Compound 16b], the concentration for 50% growth inhibition (GI50) in the experiment with HT29 turned out to be 1.23 nM; in the experiment on A549, 1.23 nM; with MEL-28, 1.11 nM; with DU-14S it was 0.37 nM.

As for `COc1c(C)cc2c(c1O)[C@@H]1[C@@H]3[C@@H]4SC[C@H](NC(=O)c5cccnc5Cl)C(=O)OC[C@@H](c5c6c(c(C)c(OC(C)=O)c54)OCO6)N3[C@@H](C#N)[C@H](C2)N1C` [Compound 15c], the 50% growth inhibitory concentration (GI50) in the experiment on HT29 was 2.93 nM; in the experiment on A549, 1.8 nM; in the experiment with MEL-28, 1.21 nM; in the experiment on DU-14S, 0.468 nM.

With `COc1c(C)cc2c(c1O)[C@@H]1[C@@H]3[C@@H]4SC[C@H](NC(=O)c5cc(C)on5)C(=O)OC[C@@H](c5c6c(c(C)c(OC(C)=O)c54)OCO6)N3[C@@H](C#N)[C@H](C2)N1C` [Compound 15e], the GI50 is 5.36 nM with HT29, 5.77 nM in the experiment with A549, 2.58 nM with MEL-28 and 3.84 nM in the experiment on DU-14S.

As to `COc1c(C)cc2c(c1O)[C@@H]1[C@@H]3[C@@H]4SC[C@H](NC(=O)[C@@H]5CCCN5)C(=O)OC[C@@H](c5c6c(c(C)c(OC(C)=O)c54)OCO6)N3[C@@H](C#N)[C@H](C2)N1C` [Compound 15f], the figures for the GI50 with HT29 and in the experiment on A549 were 0.278 nM and 2.78 nM, respectively.

Turning to `COc1c(C)cc2c(c1O)[C@@H]1[C@@H]3[C@@H]4SC[C@H](NC(=O)c5cccnc5Cl)C(=O)OC[C@@H](c5c6c(c(C)c(OC(C)=O)c54)OCO6)N3[C@@H](O)[C@H](C2)N1C` [Compound 16d], the GI50 stood at 13300 nM in the experiment with HT29, 1330 nM with A549, 2.5 nM in the experiment with MEL-28 and 2.16 nM in the experiment with DU-14S.

For `COc1c(C)cc2c(c1O)[C@@H]1C3[C@@H]4SC[C@H](NC(=O)C(NC(=O)C(C)N)C(C)C)C(=O)OC[C@@H](c5c6c(c(C)c(OC(C)=O)c54)OCO6)N3[C@@H](O)[C@H](C2)N1C` (some centres unmarked) [Compound 4s], the IC50 (with DU-145; in experiment [1]; in experiment [2]; in experiment [3]; in experiment [4]) was 1 ng/mL (≈ 1.28 nM) each time.

As for `COc1c(C)cc2c(c1O)[C@@H]1C3[C@@H]4SC[C@H](NC(=O)C(NC(=O)C(C)N)C(C)C)C(=O)OC[C@@H](c5c6c(c(C)c(OC(C)=O)c54)OCO6)N3[C@@H](C#N)[C@H](C2)N1C` (some centres unmarked) [Compound 3s], the IC50 (in the experiment on DU-145; in experiment [1]; in experiment [2]; in [3]; in experiment [4]) was 1 ng/mL (≈ 1.26 nM) throughout.

As for `COc1c(C)cc2c(c1O)[C@@H]1[C@@H]3[C@@H]4SC[C@H](NC(=O)c5cnn(-c6ccccc6)c5C(F)(F)F)C(=O)OC[C@@H](c5c6c(c(C)c(OC(C)=O)c54)OCO6)N3[C@@H](O)[C@H](C2)N1C` [Compound 16e], the GI50 in the experiment on HT29 came out at 38.6 nM; in the experiment on A549, 35.1 nM; in the experiment with MEL-28, 29.8 nM; with DU-14S, 27.2 nM.

`COc1c(C)cc2c(c1O)[C@@H]1C3[C@@H]4SC[C@H](NC(=O)CCC(=O)O)C(=O)OC[C@@H](c5c6c(c(C)c(OC(C)=O)c54)OCO6)N3[C@@H](O)[C@H](C2)N1C` (some centres unmarked) [Compound 4l]: the IC50 (with DU-145; in experiment [1]; in experiment [2]; in experiment [3]; in experiment [4]) was 100 ng/mL (≈ 140 nM) each time.

Take `COc1c(C)cc2c(c1O)[C@@H]1C3[C@@H]4SC[C@H](NC(=O)/C=C/c5ccc(C(F)(F)F)cc5)C(=O)OC[C@@H](c5c6c(c(C)c(OC(C)=O)c54)OCO6)N3[C@@H](C#N)[C@H](C2)N1C` (some centres unmarked) [Compound 3i]: the IC50 (in the experiment on DU-145; in [1]; in [2]; in experiment [3]; in experiment [4]) was 5 ng/mL (≈ 6.09 nM) throughout.
